This passage reports IC50 results from BindingDB's records for doi:10.1016/j.chembiol.2007.12.010 (Brandeis University, 2008).

As a reminder, the IC50 is the concentration that gives 50% inhibition. A lower IC50 goes with inhibition by little substance.

Common to all, as to test: Enzyme Inhibition Assay
What all share (settings): pH 8; 25 °C

The target in assay [1] is Inosine-5'-monophosphate dehydrogenase 1 (Homo sapiens, UniProt P20839). An excerpt:
(§1) Enzyme inhibition assay using recombinant human IMPDH1 and IMPDH2 and C.parvum were expressed in guaB strains of escherichia coli.

Assay [2] has as its target Inosine-5'-monophosphate dehydrogenase 2 (Homo sapiens, UniProt P12268).
From the text: as §1

In assay [3] the target is T1, Inosine-5-monophosphate dehydrogenase (Cryptosporidium parvum, UniProt Q5CPK7).
T1 sequence (Q5CPK7 whole entry): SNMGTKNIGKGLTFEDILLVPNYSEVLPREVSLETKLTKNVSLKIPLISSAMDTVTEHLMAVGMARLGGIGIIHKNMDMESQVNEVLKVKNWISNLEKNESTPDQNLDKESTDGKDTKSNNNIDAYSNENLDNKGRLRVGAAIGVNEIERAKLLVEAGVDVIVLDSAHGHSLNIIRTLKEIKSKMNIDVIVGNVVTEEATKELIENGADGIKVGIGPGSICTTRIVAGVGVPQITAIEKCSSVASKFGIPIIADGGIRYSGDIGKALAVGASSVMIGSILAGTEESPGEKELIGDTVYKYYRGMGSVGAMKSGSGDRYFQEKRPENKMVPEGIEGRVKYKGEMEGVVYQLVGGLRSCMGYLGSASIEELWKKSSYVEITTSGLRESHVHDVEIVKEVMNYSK
From the text: as §1

Bounds are passed on as bounds.

Inosine-5'-monophosphate dehydrogenase 1, sequence (P20839 whole entry): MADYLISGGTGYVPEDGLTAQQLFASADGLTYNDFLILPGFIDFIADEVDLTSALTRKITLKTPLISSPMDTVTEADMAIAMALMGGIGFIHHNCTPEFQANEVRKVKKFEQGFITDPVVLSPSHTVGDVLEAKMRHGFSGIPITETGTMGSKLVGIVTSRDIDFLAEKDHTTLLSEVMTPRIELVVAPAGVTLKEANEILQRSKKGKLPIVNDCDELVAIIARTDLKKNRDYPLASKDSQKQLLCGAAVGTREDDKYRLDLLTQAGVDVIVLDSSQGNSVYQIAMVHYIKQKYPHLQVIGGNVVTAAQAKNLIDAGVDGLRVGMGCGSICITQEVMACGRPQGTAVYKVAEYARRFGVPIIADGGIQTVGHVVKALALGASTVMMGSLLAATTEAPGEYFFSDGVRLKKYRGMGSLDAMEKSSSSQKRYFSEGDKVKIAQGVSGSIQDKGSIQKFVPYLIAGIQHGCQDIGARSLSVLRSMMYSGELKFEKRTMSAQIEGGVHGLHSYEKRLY

For the molecule `CC(Oc1ccccc1)C(=O)Nc1ccc(Cl)cc1` (configuration not stated), the IC50 in assay [1] was more than 50 µM; in assay [2], more than 50 µM; in assay [3], 3.3 µM.

With `O=C(N/C=N\c1cccnc1)C1COc2ccccc2O1` (configuration not stated) [N-[(Z)-N-(pyridin-3-yl)carboximidoyl]-2,3-dihydro-1,4-benzodioxine-2-carboxamide, K], the IC50 in assay [1] is more than 500 µM; in assay [2], more than 500 µM; in assay [3], 19 µM.

As to `O=c1[nH]c2ccc(Oc3ccc4[nH]c(=O)c(=O)[nH]c4c3)cc2[nH]c1=O` [Tetrahydroquinoxalin analog, J], the 50% inhibitory concentration (IC50) was more than 50 µM in assay [1], more than 50 µM in assay [2] and 5.9 µM in assay [3].

`COC(=O)c1c(C)c(=O)[nH]c2ccccc12` [methyl 3-methyl-2-oxo-1,2-dihydroquinoline-4-carboxylate, Compound E]: the IC50 in assay [1] is more than 25 µM; in assay [2], more than 25 µM; in assay [3], 1.6 µM.
